Laboratory results published in US20020137929A1, “1 - (3-heterocyclylphenyl) isothiourea, -isourea, -guanidine and -amidine herbicidal agents” (Intellectual Property Department, BASF Aktiengesellschaft, priority 1998, published 2002).

Key:
CASOB (Sicklepod) = assay: Postemergence herbicidal evaluation; format: in vivo, Cassia obtusifolia; conditions: postemergence
Procedure, shortened: (§1)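 Scores (0–9) reflect plant stand, vigor, malformation, size, chlorosis and general appearance relative to control, read 4 to 5 weeks after treatment and averaged where tests were repeated. Application: about 0.0156–0.500 kg/ha sprayed at 40 psi onto two-week seedlings.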

GALAP (Galium) = assay: Postemergence herbicidal evaluation; format: in vivo, Galium aparine; conditions: postemergence
Procedure, shortened: as §1

ZEAMX (Corn, Field) [1] = assay: Postemergence herbicidal evaluation; format: in vivo, Zea mays; conditions: postemergence
Procedure, shortened: as §1

AMBEL (Ragweed, Common) = assay: Preemergence herbicidal evaluation; format: in vivo, Ambrosia artemisifolia; conditions: preemergence, rated 4-5 weeks after treatment, 0-9 scale
Procedure, shortened: (§2)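 Scores use a 0–9 visual scale covering stand, vigor, malformation, size and chlorosis relative to controls, rated four to five weeks after treatment. Before emergence, soil-planted seeds were sprayed with compound in aqueous acetone at roughly 0.0156–0.500 kg/ha and held in the greenhouse.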

[2] = system: CHEAL (Lambsquarters, Common); assay: Preemergence herbicidal evaluation; format: in vivo, Chenopodium album; conditions: preemergence, rated 4-5 weeks after treatment, 0-9 scale
Procedure, shortened: as §2

[3] = system: IPOHE (Morningglory, Ivyleaf); assay: Preemergence herbicidal evaluation; format: in vivo, Ipomoea hederacea; conditions: preemergence, rated 4-5 weeks after treatment, 0-9 scale
Procedure, shortened: as §2

ORYSAT (Rice, Tebonnet) = assay: Preemergence herbicidal evaluation; format: in vivo, Oryza sativa, (L.) Tebonnet; conditions: preemergence, rated 4-5 weeks after treatment, 0-9 scale
Procedure, shortened: as §2

[4] = system: TRZAWR (Wheat, Winter, cv Riband); assay: Preemergence herbicidal evaluation; format: in vivo, Triticum aestivum; conditions: preemergence, rated 4-5 weeks after treatment, 0-9 scale
Procedure, shortened: as §2

ZEAMX (Corn, Field) [5] = assay: Preemergence herbicidal evaluation; format: in vivo, Zea mays; conditions: preemergence, rated 4-5 weeks after treatment, 0-9 scale
Procedure, shortened: as §2

[6] = system: ECHORC (Watergrass (Calif.)); assay: Preemergence weed control under flooded paddy conditions; format: in vivo, Echinochloa oryzoides; conditions: rated 3-4 weeks after treatment
Procedure, shortened: (§3)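 Ratings on a 0-9 visual scale cover stand, vigor, malformation, size, chlorosis and overall appearance relative to a control, taken three to four weeks post-treatment. Application was into flood water over freshly sown silt loam at roughly 0.0313 to 0.500 kg/ha.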

CYPIR (Rice Flatsedge) = assay: as above; format: in vivo, Cyperus iria; conditions: rated 3-4 weeks after treatment
Procedure, shortened: as §3

CYPSE (Flatsedge) [7] = assay: as above; format: in vivo, Cyperus serotinus; conditions: rated 3-4 weeks after treatment
Procedure, shortened: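 Seeds or propagules sown in silt loam kept flooded 1.5-3 cm; compounds in 50/50 acetone/water pipetted into flood water at about 0.0313 to 0.500 kg/ha. Greenhouse; visual 0-9 rating versus untreated control 3-4 weeks after treatment.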

[8] = system: ECHORC (Watergrass (Calif.)); assay: Postemergence weed control under flooded paddy conditions; format: in vivo, Echinochloa oryzoides; conditions: postemergence weeds, rated 3 to 4 weeks after treatment
Procedure, shortened: (§4)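 Injury ratings (0–9 scale covering stand, vigor, malformation, size, chlorosis and overall appearance versus control) were made three to four weeks after treatment. Test material, about 0.0313 to 0.500 kg/ha a.i. in 50/50 v/v aqueous/acetone, was added to flood water 1.5 to 3 cm deep over 3 to 5 cm weeds and 1.5 to 2.5 leaf rice.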

CYPSE (Flatsedge) [9] = assay: as above; format: in vivo, Cyperus serotinus; conditions: postemergence weeds, rated 3 to 4 weeks after treatment
Procedure, shortened: as §4

C=CCN1C(=O)C(CC(=O)OC(C)C(=O)OCC)SC1=Nc1cc(-n2c(=O)ccn(C)c2=O)c(F)cc1Cl [Compound 94, 3-Allyl-2-{{2-chloro-5-[3,6-dihydro-3-methyl-2,6-dioxo-1(2H)-pyrimidinyl]-4-fluorophenyl}imino}-4-oxo-5-thiazolidineacetic acid, ester with ethyl lactate, (R,S)-]
CASOB herbicidal rating (CASOB (Sicklepod); rate 0.0158 kg/ha): 0.0 | CASOB herbicidal rating (CASOB (Sicklepod); rate 0.0315 kg/ha): 3.0 | CASOB herbicidal rating (CASOB (Sicklepod); rate 0.0630 kg/ha): 9.0 | GALAP herbicidal rating (GALAP (Galium); rate 0.0158 kg/ha): 3.0 | GALAP herbicidal rating (GALAP (Galium); rate 0.0315 kg/ha): 4.0 | GALAP herbicidal rating (GALAP (Galium); rate 0.0630 kg/ha): 4.0 | ZEAMX herbicidal rating (ZEAMX (Corn, Field) [1]; rate 0.0158 kg/ha): 8.5 | ZEAMX herbicidal rating (ZEAMX (Corn, Field) [1]; rate 0.0315 kg/ha): 8.5 | ZEAMX herbicidal rating (ZEAMX (Corn, Field) [1]; rate 0.0630 kg/ha): 9.0 | AMBEL rating (AMBEL (Ragweed, Common); 0.0156 kg/ha): 0.0 | AMBEL rating (AMBEL (Ragweed, Common); 0.0313 kg/ha): 0.0 | AMBEL rating (AMBEL (Ragweed, Common); 0.0625 kg/ha): 4.0 | AMBEL rating (AMBEL (Ragweed, Common); 0.1250 kg/ha): 9.0 | AMBEL rating (AMBEL (Ragweed, Common); 0.2500 kg/ha): 9.0 | CHEAL rating ([2]; 0.0156 kg/ha): 9.0 | CHEAL rating ([2]; 0.0313 kg/ha): 9.0 | CHEAL rating ([2]; 0.0625 kg/ha): 9.0 | CHEAL rating ([2]; 0.1250 kg/ha): 9.0 | CHEAL rating ([2]; 0.2500 kg/ha): 9.0 | IPOHE rating ([3]; 0.0156 kg/ha): 0.0 | IPOHE rating ([3]; 0.0313 kg/ha): 0.0 | IPOHE rating ([3]; 0.0625 kg/ha): 0.0 | IPOHE rating ([3]; 0.1250 kg/ha): 9.0 | IPOHE rating ([3]; 0.2500 kg/ha): 9.0 | ORYSAT rating (ORYSAT (Rice, Tebonnet); 0.0156 kg/ha): 0.0 | ORYSAT rating (ORYSAT (Rice, Tebonnet); 0.0313 kg/ha): 0.0 | ORYSAT rating (ORYSAT (Rice, Tebonnet); 0.0625 kg/ha): 0.0 | ORYSAT rating (ORYSAT (Rice, Tebonnet); 0.1250 kg/ha): 0.0 | ORYSAT rating (ORYSAT (Rice, Tebonnet); 0.2500 kg/ha): 3.0 | TRZAWR rating ([4]; 0.0156 kg/ha): 0.0 | TRZAWR rating ([4]; 0.0313 kg/ha): 0.0 | TRZAWR rating ([4]; 0.0625 kg/ha): 0.0 | TRZAWR rating ([4]; 0.1250 kg/ha): 0.0 | TRZAWR rating ([4]; 0.2500 kg/ha): 0.0 | ZEAMX rating (ZEAMX (Corn, Field) [5]; 0.0156 kg/ha): 0.0 | ZEAMX rating (ZEAMX (Corn, Field) [5]; 0.0313 kg/ha): 0.0 | ZEAMX rating (ZEAMX (Corn, Field) [5]; 0.0625 kg/ha): 0.0 | ZEAMX rating (ZEAMX (Corn, Field) [5]; 0.1250 kg/ha): 0.0 | ZEAMX rating (ZEAMX (Corn, Field) [5]; 0.2500 kg/ha): 6.0 | ECHORC herbicidal effect rating ([6]; 0.0313 kg/ha): 0.0 | ECHORC herbicidal effect rating ([6]; 0.0625 kg/ha): 0.0 | ECHORC herbicidal effect rating ([6]; 0.1250 kg/ha): 2.0 | ECHORC herbicidal effect rating ([6]; 0.2500 kg/ha): 7.0 | CYPIR herbicidal effect rating (CYPIR (Rice Flatsedge); 0.0313 kg/ha): 0.0 | CYPIR herbicidal effect rating (CYPIR (Rice Flatsedge); 0.0625 kg/ha): 3.0 | CYPIR herbicidal effect rating (CYPIR (Rice Flatsedge); 0.1250 kg/ha): 4.0 | CYPIR herbicidal effect rating (CYPIR (Rice Flatsedge); 0.2500 kg/ha): 4.0 | CYPSE herbicidal effect rating (CYPSE (Flatsedge) [7]; 0.1250 kg/ha): 6.0 | CYPSE herbicidal effect rating (CYPSE (Flatsedge) [7]; 0.2500 kg/ha): 9.0 | Herbicidal rating ECHORC ([8]; Rate 0.0313 kg/ha): 0.0 | Herbicidal rating ECHORC ([8]; Rate 0.0625 kg/ha): 0.0 | Herbicidal rating ECHORC ([8]; Rate 0.1250 kg/ha): 2.0 | Herbicidal rating ECHORC ([8]; Rate 0.2500 kg/ha): 7.0 | Herbicidal rating CYPSE (CYPSE (Flatsedge) [9]; Rate 0.1250 kg/ha): 6.0 | Herbicidal rating CYPSE (CYPSE (Flatsedge) [9]; Rate 0.2500 kg/ha): 9.0

CN1C(=O)C(CC(=O)NS(C)(=O)=O)SC1=Nc1cc(-n2c(=O)cc(C(F)(F)F)n(C)c2=O)c(F)cc1Cl (stereo not drawn) [Compound 97, 2-{{2-Chloro-5-[3,6-dihydro-3-methyl-2,6-dioxo-4-(trifluoromethyl)-1(2H)-pyrimidinyl]-4-fluorophenyl}imino}-3-methyl-N-(methylsulfonyl)-4-oxo-5-thiazolidineacetamide]
CASOB herbicidal rating (CASOB (Sicklepod); rate 0.0156 kg/ha): 0.0 | CASOB herbicidal rating (CASOB (Sicklepod); rate 0.0313 kg/ha): 0.0 | CASOB herbicidal rating (CASOB (Sicklepod); rate 0.0625 kg/ha): 0.0 | CASOB herbicidal rating (CASOB (Sicklepod); rate 0.1250 kg/ha): 1.0 | GALAP herbicidal rating (GALAP (Galium); rate 0.0156 kg/ha): 0.0 | GALAP herbicidal rating (GALAP (Galium); rate 0.0313 kg/ha): 0.0 | GALAP herbicidal rating (GALAP (Galium); rate 0.0625 kg/ha): 1.0 | GALAP herbicidal rating (GALAP (Galium); rate 0.1250 kg/ha): 1.0 | ZEAMX herbicidal rating (ZEAMX (Corn, Field) [1]; rate 0.0156 kg/ha): 3.5 | ZEAMX herbicidal rating (ZEAMX (Corn, Field) [1]; rate 0.0313 kg/ha): 4.0 | ZEAMX herbicidal rating (ZEAMX (Corn, Field) [1]; rate 0.0625 kg/ha): 4.0 | ZEAMX herbicidal rating (ZEAMX (Corn, Field) [1]; rate 0.1250 kg/ha): 5.0 | AMBEL rating (AMBEL (Ragweed, Common); 0.1250 kg/ha): 0.0 | AMBEL rating (AMBEL (Ragweed, Common); 0.2500 kg/ha): 4.0 | AMBEL rating (AMBEL (Ragweed, Common); 0.5000 kg/ha): 4.0 | CHEAL rating ([2]; 0.1250 kg/ha): 7.0 | CHEAL rating ([2]; 0.2500 kg/ha): 9.0 | CHEAL rating ([2]; 0.5000 kg/ha): 9.0 | IPOHE rating ([3]; 0.1250 kg/ha): 1.0 | IPOHE rating ([3]; 0.2500 kg/ha): 9.0 | IPOHE rating ([3]; 0.5000 kg/ha): 9.0 | ORYSAT rating (ORYSAT (Rice, Tebonnet); 0.1250 kg/ha): 0.0 | ORYSAT rating (ORYSAT (Rice, Tebonnet); 0.2500 kg/ha): 1.0 | ORYSAT rating (ORYSAT (Rice, Tebonnet); 0.5000 kg/ha): 1.0 | TRZAWR rating ([4]; 0.1250 kg/ha): 0.0 | TRZAWR rating ([4]; 0.2500 kg/ha): 1.0 | TRZAWR rating ([4]; 0.5000 kg/ha): 2.0 | ZEAMX rating (ZEAMX (Corn, Field) [5]; 0.1250 kg/ha): 0.0 | ZEAMX rating (ZEAMX (Corn, Field) [5]; 0.2500 kg/ha): 0.0 | ZEAMX rating (ZEAMX (Corn, Field) [5]; 0.5000 kg/ha): 4.0 | ECHORC herbicidal effect rating ([6]; 0.0313 kg/ha): 0.0 | ECHORC herbicidal effect rating ([6]; 0.0625 kg/ha): 0.0 | ECHORC herbicidal effect rating ([6]; 0.1250 kg/ha): 2.0 | ECHORC herbicidal effect rating ([6]; 0.2500 kg/ha): 3.0 | CYPIR herbicidal effect rating (CYPIR (Rice Flatsedge); 0.0313 kg/ha): 0.0 | CYPIR herbicidal effect rating (CYPIR (Rice Flatsedge); 0.0625 kg/ha): 0.0 | CYPIR herbicidal effect rating (CYPIR (Rice Flatsedge); 0.1250 kg/ha): 3.0 | CYPIR herbicidal effect rating (CYPIR (Rice Flatsedge); 0.2500 kg/ha): 4.0 | CYPSE herbicidal effect rating (CYPSE (Flatsedge) [7]; 0.0313 kg/ha): 0.0 | CYPSE herbicidal effect rating (CYPSE (Flatsedge) [7]; 0.0625 kg/ha): 0.0 | CYPSE herbicidal effect rating (CYPSE (Flatsedge) [7]; 0.1250 kg/ha): 0.0 | CYPSE herbicidal effect rating (CYPSE (Flatsedge) [7]; 0.2500 kg/ha): 3.0 | Herbicidal rating ECHORC ([8]; Rate 0.0313 kg/ha): 0.0 | Herbicidal rating ECHORC ([8]; Rate 0.0625 kg/ha): 0.0 | Herbicidal rating ECHORC ([8]; Rate 0.1250 kg/ha): 2.0 | Herbicidal rating ECHORC ([8]; Rate 0.2500 kg/ha): 3.0 | Herbicidal rating CYPSE (CYPSE (Flatsedge) [9]; Rate 0.0313 kg/ha): 0.0 | Herbicidal rating CYPSE (CYPSE (Flatsedge) [9]; Rate 0.0625 kg/ha): 0.0 | Herbicidal rating CYPSE (CYPSE (Flatsedge) [9]; Rate 0.1250 kg/ha): 0.0 | Herbicidal rating CYPSE (CYPSE (Flatsedge) [9]; Rate 0.2500 kg/ha): 3.0
